# Measured values from patent US6642392B1 (priority 1997, dated 2003).
# Key:
# Type in all cases: in vivo
# [1] = tested on: Eiysiphe graminis f. sp. tritici; assay: Test A: wheat powdery mildew, preventive spray on wheat seedlings; conditions: for Test A disease control rating: wheat powdery mildew, 100 = 100% disease control, 0 = no control relative to controls, unmarked entries (standard test concentration); for Test A disease control rating (100 = 100% disease control, 0 = no disease control): wheat seedlings sprayed to run-off, inoculated the following day, rating relative to controls, unmarked compounds (standard test rate)
# Experimental: (§1) The resulting test suspensions were then used in the following tests. […]
# The test suspension was sprayed to the point of run-off on wheat seedlings. The following day the seedlings were inoculated with a spore dust of Eiysiphe graminis f. sp. tritici, (the causal agent of wheat powdery mildew) and incubated in a growth chamber at 20° C. for 7 days, after which disease ratings were made.
# (§2) Results for Tests A-E are given in Table A. In the table, a rating of 100 indicates 100% disease control and a rating of 0 indicates no disease control (relative to the controls). A dash (-) indicates no test results. ND indicates disease control not determined due to phytotoxicity.
# Puccinia recondita = assay: Test B: wheat leaf rust, preventive spray on wheat seedlings; conditions: for Test B disease control rating: wheat leaf rust, 100 = 100% disease control, 0 = no control, unmarked entries (standard test concentration); for Test B disease control rating (100 = 100% disease control, 0 = no disease control): wheat seedlings sprayed to run-off, inoculated the following day, rating relative to controls, unmarked compounds (standard test rate)
# Experimental: as §1
# (§3) The test suspension was sprayed to the point of run-off on wheat seedlings. The following day the seedlings were inoculated with a spore suspension of Puccinia recondita (the causal agent of wheat leaf rust) and incubated in a saturated atmosphere at 20° C. for 24 h, and then moved to a growth chamber at 20° C. for 6 days, after which disease ratings were made.
# as §2
# Pyricularia oryzae = conditions: for Test C disease control rating: rice blast, 100 = 100% disease control, 0 = no control, unmarked entries (standard test concentration); for Test C disease control rating (100 = 100% disease control, 0 = no disease control): rice seedlings sprayed to run-off, inoculated the following day, rating relative to controls, unmarked compounds (standard test rate)
# Phytophthora infestans = conditions: for Test D disease control rating: tomato late blight, 100 = 100% disease control, 0 = no control, unmarked entries (standard test concentration); for Test D disease control rating (100 = 100% disease control, 0 = no disease control): tomato seedlings sprayed to run-off, inoculated the following day, rating relative to controls, unmarked compounds (standard test rate)
# Botrytis cinerea = assay: Test E: gray mold, preventive spray on cucumber seedlings; conditions: for Test E disease control rating: gray mold on cucumber, 100 = 100% disease control, 0 = no control, unmarked entries (standard test concentration)
# Experimental: The resulting test suspensions were then used in the following tests. Spraying these 200 ppm test suspensions to the point of run-off on the test plants is the equivalent of a rate of 500 g/ha.
# as §3, with “cucumber” for “wheat”, “Botrytis cinerea” for “Puccinia recondita”, “gray mold on many crops)” for “wheat leaf rust)”, “48” for “24”, “and” for “and then”, “5” for “6”
# as §2
SMILES,Test A disease control rating [1],Test B disease control rating (Puccinia recondita),Test C disease control rating (Pyricularia oryzae),Test D disease control rating (Phytophthora infestans),Test E disease control rating (Botrytis cinerea),"Test A disease control rating (100 = 100% disease control, 0 = no disease control) [1]","Test B disease control rating (100 = 100% disease control, 0 = no disease control) (Puccinia recondita)","Test C disease control rating (100 = 100% disease control, 0 = no disease control) (Pyricularia oryzae)","Test D disease control rating (100 = 100% disease control, 0 = no disease control) (Phytophthora infestans)","Test E disease control rating (100 = 100% disease control, 0 = no disease control) (Botrytis cinerea; cucumber seedlings sprayed to run-off, inoculated the following day, rating relative to controls, unmarked compounds (standard test rate))"
CCC1(C(=O)NC(C)COc2cccc(F)c2C#N)C(C)C1(Cl)Cl (mixture of isomers) [compound 130],0%,0%,32%,2%,0%,,,,,
CCC1(C(=O)NC(C)COn2c(C#N)cc(Cl)c2C)C(C)C1(Cl)Cl (mixture of isomers) [140a],29%,0%,90%,0%,0%,,,,,
CCC1(C(=O)NC(C)COc2c(F)ccc(F)c2C#N)C(C)C1(Cl)Cl (mixture of isomers) [compound 258],,,,,,74%,27%,94%,0%,0%
"Cc1ccc(Cl)c(OC[C@@H](C)NC(=O)C(C#N)C(C)(C)C)c1 (single isomer, unassigned) [15b]",0%,0%,97%,45%,0%,,,,,
CC(COc1c(Cl)cc(F)cc1Cl)NC(=O)C(C#N)C(C)(C)C (mixture of isomers) [compound 197],59%,0%,86%,0%,,,,,,
CC(COc1cc(F)ccc1OC(F)(F)C(F)F)NC(=O)C(C#N)C(C)(C=CF)CF (mixture of isomers) [compound 225],,,,,,91%,86%,100%,5%,
CC(COc1cc(Cl)ccc1F)NC(=O)C(C#N)C(C)C(C)(C)C (mixture of isomers) [compound 199],85%,68%,97%,5%,,,,,,
"C=CC(C)(C)C(C#N)C(=O)N[C@H](C)COc1cc(Cl)ccc1F (single isomer, unassigned) [200b]",0%,0%,100%,5%,,,,,,
CCC1(C(=O)NC(C)COc2cccc(Br)c2)C(C)C1(Cl)Cl (mixture of isomers) [85a],55%,0%,53%,,0%,,,,,
CCC1(C(=O)NC(C)COc2cc(F)ccc2Cl)C(C)C1(Cl)Cl (centres unmarked) [compound 253],,,,,,59%,0%,100%,0%,
CC(COc1c(F)c(F)cc(F)c1F)NC(=O)C(C#N)C(C)(C)C (mixture of isomers) [compound 195],85%,0%,99%,32%,,,,,,
CCC1(C(=O)NC(C)COc2ccccc2)C(C)C1(Cl)Cl (mixture of isomers) [77a],73%,28%,86%,,0%,,,,,
CC(COc1cc(Cl)ccc1F)NC(=O)C(C#N)C(C)(C)C=CF (mixture of isomers) [compound 224],,,,,,85%,0%,100%,5%,
"C[C@H](COc1cc(Cl)ccc1F)NC(=O)C(C#N)C(C)(C)C (single isomer, unassigned) [198a]",75%,28%,100%,5%,,,,,,
Cc1ccc(F)c(OCC(C)NC(=O)C(C#N)C(C)(C=CF)CF)c1 (mixture of isomers) [compound 226],,,,,,0%,0%,100%,0%,
CCC1(C(=O)NCCCn2c(C#N)cc(Cl)c2Cl)C(C)C1(Cl)Cl (centres unmarked) [compound 151],0%,0%,91%,,0%,,,,,
CCC1(C(=O)NCCCn2c(Cl)ccc2C#N)C(C)C1(Cl)Cl (centres unmarked) [compound 152],55%,68%,86%,,0%,,,,,
CCC1(C(=O)NC(C)COc2cc(F)c(F)cc2Br)C(C)C1(Cl)Cl (centres unmarked) [compound 235],,,,,,0%,0%,91%,0%,
C#CC(C)(C)C(C#N)C(=O)NC(C)COc1cc(Cl)ccc1F (mixture of isomers) [compound 320],,,,,,59%,68%,100%,0%,
CCC1(C(=O)NC(C)COc2ccc(F)c(F)c2F)C(C)C1(Cl)Cl (centres unmarked) [compound 238],,,,,,62%,0%,74%,0%,
"C=CC(C)(C)C(C#N)C(=O)N[C@H](C)COc1cc(Cl)ccc1F (single isomer, unassigned) [200a]",0%,0%,100%,5%,,,,,,
Cc1ccc(Cl)c(OCC(C)NC(=O)C(C#N)C(C)(C=CF)CF)c1 (mixture of isomers) [compound 227],,,,,,0%,0%,100%,0%,
CCCc1ccccc1OCC(C)NC(=O)C(C#N)C(C)(C)C (mixture of isomers) [21b],37%,27%,99%,,0%,,,,,
CCC1(C(=O)NC(C)COc2cc(Cl)ccc2F)C(C)C1(Cl)Cl (centres unmarked) [compound 252],,,,,,0%,0%,99%,5%,
"C[C@H](COc1cc(Cl)ccc1F)NC(=O)C(C#N)C(C)(C)C (single isomer, unassigned) [198b]",59%,28%,100%,5%,,,,,,
CCC1(C(=O)NC(C)COc2ccccc2F)C(C)C1(Cl)Cl (mixture of isomers) [78b],84%,0%,99%,,0%,,,,,
CCC1(C(=O)NC(C)COc2ccccc2C#N)C(C)C1(Cl)Cl (mixture of isomers) [89b],26%,68%,91%,,47%,,,,,
CC(COc1c(Br)cc(F)cc1Br)NC(=O)C(C#N)C(C)(C)C (mixture of isomers) [compound 196],0%,0%,86%,0%,,,,,,
